According to US20150342954A1, “2-BENZYL, 3-(PYRIMIDIN-2-YL) SUBSTITUTED PYRAZOLES USEFUL AS SGC STIMULATORS” (IRONWOOD PHARMACEUTICALS, INC., priority 2011, published 2015):
pEC50: −log10 of the molar value. Where two headings read alike, the source gives them in different places.

Tests used:
[1] = target: T1, Human soluble guanylate cyclase enzyme (hsGC) (Homo sapiens, UniProt Q02108+Q02153); assay: Purified human sGC enzyme synergy assay in the presence of 1 μM sodium nitroprusside (SNP); type: biochemical; conditions: compound at 30 μM, presence of 1 μM SNP; Table 5A
T1 construct: purchased Enzo Inc. ALX-201-177
T1 sequence (Q02153 1-619): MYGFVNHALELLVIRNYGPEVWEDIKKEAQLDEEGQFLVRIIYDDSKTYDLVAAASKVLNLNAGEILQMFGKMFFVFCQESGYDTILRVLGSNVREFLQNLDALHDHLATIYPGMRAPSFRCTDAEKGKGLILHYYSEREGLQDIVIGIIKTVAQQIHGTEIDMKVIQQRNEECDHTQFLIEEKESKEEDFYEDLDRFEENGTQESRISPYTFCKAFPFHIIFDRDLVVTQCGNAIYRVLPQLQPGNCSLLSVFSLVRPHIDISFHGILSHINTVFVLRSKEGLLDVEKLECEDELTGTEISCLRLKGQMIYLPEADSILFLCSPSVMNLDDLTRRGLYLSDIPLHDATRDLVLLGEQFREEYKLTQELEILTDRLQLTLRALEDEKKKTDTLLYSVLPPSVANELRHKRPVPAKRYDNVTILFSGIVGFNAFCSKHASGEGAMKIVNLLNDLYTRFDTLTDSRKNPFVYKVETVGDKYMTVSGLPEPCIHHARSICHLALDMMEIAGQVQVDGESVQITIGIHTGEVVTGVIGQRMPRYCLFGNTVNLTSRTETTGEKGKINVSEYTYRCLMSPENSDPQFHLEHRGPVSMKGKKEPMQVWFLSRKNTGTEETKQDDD
T1 sequence (Q02108 1-690): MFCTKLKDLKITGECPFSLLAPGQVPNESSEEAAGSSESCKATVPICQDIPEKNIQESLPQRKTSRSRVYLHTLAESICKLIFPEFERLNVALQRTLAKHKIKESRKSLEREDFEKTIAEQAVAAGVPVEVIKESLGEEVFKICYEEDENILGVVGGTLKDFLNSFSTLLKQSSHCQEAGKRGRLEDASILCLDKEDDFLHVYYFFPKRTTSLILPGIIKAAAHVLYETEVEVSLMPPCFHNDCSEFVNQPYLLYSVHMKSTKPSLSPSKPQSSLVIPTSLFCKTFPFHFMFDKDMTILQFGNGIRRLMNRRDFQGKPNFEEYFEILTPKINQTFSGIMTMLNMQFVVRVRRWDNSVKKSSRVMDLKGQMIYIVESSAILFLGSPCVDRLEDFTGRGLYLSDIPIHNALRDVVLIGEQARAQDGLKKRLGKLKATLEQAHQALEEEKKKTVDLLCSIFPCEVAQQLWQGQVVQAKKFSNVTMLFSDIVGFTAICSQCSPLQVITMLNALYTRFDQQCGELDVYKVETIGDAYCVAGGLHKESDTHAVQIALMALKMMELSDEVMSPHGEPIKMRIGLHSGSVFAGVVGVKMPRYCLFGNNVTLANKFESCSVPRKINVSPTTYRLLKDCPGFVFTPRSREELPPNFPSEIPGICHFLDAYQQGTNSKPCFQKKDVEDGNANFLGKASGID
Procedure, shortened: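 Purified hsGC (5 ng) incubated 30 min at 37 °C with compound (10 or 30 μM final) in Tris pH 8.0, 300 μM GTP, 1 mM IBMX, 2 mM MgCl2, with or without 1 μM SNP; stopped with cold methanol. cGMP quantified against standard curve; specific activity expressed as fold-change over DMSO control.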

[2] = target: T2, soluble guanylate cyclase (sGC) (Homo sapiens, UniProt Q02108+Q02153); assay: sGC-HEK-cGMP assay (run with SNP incubation); type: cell-based; conditions: for Emax: Table 3A, 10 μM SNP, 100% = 30 μM BAY 41-2272 with 10 μM SNP, read-out: HEK assay Emax-unconstrained (Percent); for HEK MEC-10: concentration that would elicit 10% of the Emax in the presence of 10 μM SNP; for HEK MEC-10 / pEC50: Table 3D; for pEC50: in the presence of 10 μM SNP
T2 construct: endogenously expressing soluble guanylate cyclase (sGC); endogenous in cells; host or cells: HEK293
T2 sequence (Q02153 1-619): T1 sequence (Q02153 1-619)
T2 sequence (Q02108 1-690): T1 sequence (Q02108 1-690)
Procedure, shortened: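 HEK293 cells with endogenous sGC were pre-treated 15 min at 37 °C with 0.5 mM IBMX, then exposed to test compound plus sodium nitroprusside for 10 min at 37 °C. Cells were lysed in 0.1 M HCl (4 °C, 30 min), and cGMP was quantified by LC/MS against a standard curve. EC50 values came from concentration-response curves.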

[3] = top of concentration-response curve not fitted to 100%
[4] = top of concentration-response curve not fitted to 100%, read-out: HEK assay EC50-unconstrained

| Enzyme Activity (increase at 30 μM with SNP) [1] | Emax [2, 3] | HEK MEC-10 [2] | pEC50 ([2]; read-out: HEK assay EC50) | pEC50 [2, 4] | Structure (SMILES) |
| --- | --- | --- | --- | --- | --- |
| D (10 or <20 fold increase) | 80 to 100% | B (0.01 to <0.1 μM) | > 4.70 | 6.30 to 8.00 | Nc1nc(-c2cc(-c3ccon3)n(Cc3ccccc3F)n2)ncc1NC(=O)C1(c2ccccc2)CC1 [Compound 27] |
| D (10 or <20 fold increase) | 80 to 100% | C (0.1 to <1 μM) | > 4.70 | 6.30 to 8.00 | Nc1nc(-c2cc(-c3ccon3)n(Cc3cccc(F)c3F)n2)ncc1NC(=O)C1(C(F)(F)F)CC1 [Compound 40] |
| E (20 to 30 fold increase) | 80 to 100% | A (0.001 to <0.01 μM) | > 4.70 | 6.30 to 8.00 | Nc1nc(-c2cc(-c3ccon3)n(Cc3ccccc3F)n2)ncc1NC(=O)C1(F)CC1 [Compound 35] |
